Reference: ChEMBL document CHEMBL1201862, “PubChem BioAssay data set” (2004)
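Tested at 5 concentrations; 48 h exposure; 96-well plates; endpoints linearly interpolated, else capped at highest concentration. At the GI50, growth is halved.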 Active and inactive are the calls of the source. Rule as the data show it: active = GI50 up to about 1.1 µM and inactive = higher.

Legend:
Assay in all cases: NCI-60 cell line screen, 48 h
786-0 = tested on: 786-0
A498 = tested on: A498
A549 = tested on: A549
ACHN = tested on: ACHN
BT-549 = tested on: BT-549
CAKI-1 = tested on: CAKI-1
CCRF-CEM = tested on: CCRF-CEM
COLO 205 = tested on: COLO 205
DU-145 = tested on: DU-145
EKVX = tested on: EKVX
HCC 2998 = tested on: HCC 2998
HCT-116 = tested on: HCT-116
HCT-15 = tested on: HCT-15
HL-60 = tested on: HL-60
HOP-92 = tested on: HOP-92
HT-29 = tested on: HT-29
Hs-578T = tested on: Hs-578T
IGROV-1 = tested on: IGROV-1
KM12 = tested on: KM12
LOX IMVI = tested on: LOX IMVI
M14 = tested on: M14
MCF7 = tested on: MCF7
MDA-MB-231 = tested on: MDA-MB-231
MDA-MB-435 = tested on: MDA-MB-435
MDA-N = tested on: MDA-N
Malme-3M = tested on: Malme-3M
NCI-H226 = tested on: NCI-H226
NCI-H23 = tested on: NCI-H23
NCI-H460 = tested on: NCI-H460
NCI-H522 = tested on: NCI-H522
NCI/ADR-RES = tested on: NCI/ADR-RES
OVCAR-3 = tested on: OVCAR-3
OVCAR-4 = tested on: OVCAR-4
OVCAR-5 = tested on: OVCAR-5
OVCAR-8 = tested on: OVCAR-8
PC-3 = tested on: PC-3
RPMI-8226 = tested on: RPMI-8226
RXF 393 = tested on: RXF 393
SF-268 = tested on: SF-268
SF-295 = tested on: SF-295
SF-539 = tested on: SF-539
SK-MEL-28 = tested on: SK-MEL-28
SK-MEL-2 = tested on: SK-MEL-2
SK-MEL-5 = tested on: SK-MEL-5
SK-OV-3 = tested on: SK-OV-3
SN12C = tested on: SN12C
SNB-19 = tested on: SNB-19
SNB-75 = tested on: SNB-75
SW-620 = tested on: SW-620
T47D = tested on: T47D
TK-10 = tested on: TK-10
U-251 = tested on: U-251
UACC-257 = tested on: UACC-257
UACC-62 = tested on: UACC-62
UO-31 = tested on: UO-31
HOP-62 = tested on: HOP-62
MOLT-4 = tested on: MOLT-4

`Cc1ccc(C)c2c1n1c(=O)n(C)c(=O)n21` was tested, and the GI50 (786-0) was > 100 µM (inactive), the GI50 (A498) was > 100 µM (inactive) and the GI50 (A549) was > 100 µM (inactive). The GI50 (ACHN) was > 100 µM (inactive), the GI50 (BT-549) was > 100 µM (inactive) and the GI50 (CAKI-1) was > 100 µM (inactive). For the same compound, the GI50 (CCRF-CEM) was > 100 µM (inactive), the GI50 (COLO 205) was > 100 µM (inactive) and the GI50 (DU-145) was > 100 µM (inactive). The GI50 (EKVX) was > 100 µM (inactive), the GI50 (HCC 2998) was > 100 µM (inactive) and the GI50 (HCT-116) was > 100 µM (inactive). For the same compound, the GI50 (HCT-15) was > 100 µM, the GI50 (HL-60) was > 100 µM (inactive) and the GI50 (HOP-92) was > 100 µM (inactive). For the same compound, the GI50 (HT-29) was > 100 µM (inactive), the GI50 (Hs-578T) was > 100 µM (inactive) and the GI50 (IGROV-1) was > 100 µM (inactive). The GI50 (KM12) was > 100 µM (inactive), the GI50 (LOX IMVI) was > 100 µM (inactive) and the GI50 (M14) was > 100 µM (inactive). For the same compound, the GI50 (MCF7) was > 100 µM (inactive), the GI50 (MDA-MB-231) was > 100 µM (inactive) and the GI50 (MDA-MB-435) was > 100 µM (inactive). The GI50 (MDA-N) was > 100 µM (inactive), the GI50 (Malme-3M) was > 100 µM (inactive) and the GI50 (NCI-H226) was > 100 µM (inactive). For the same compound, the GI50 (NCI-H23) was > 100 µM (inactive), the GI50 (NCI-H460) was > 100 µM (inactive) and the GI50 (NCI-H522) was > 100 µM (inactive). The GI50 (NCI/ADR-RES) was > 100 µM (inactive), the GI50 (OVCAR-3) was > 100 µM (inactive) and the GI50 (OVCAR-4) was > 100 µM (inactive). For the same compound, the GI50 (OVCAR-5) was > 100 µM (inactive), the GI50 (OVCAR-8) was > 100 µM (inactive) and the GI50 (PC-3) was > 100 µM (inactive). The GI50 (RPMI-8226) was > 100 µM (inactive), the GI50 (RXF 393) was > 100 µM (inactive) and the GI50 (SF-268) was > 100 µM (inactive). The GI50 (SF-295) was > 100 µM (inactive), the GI50 (SF-539) was > 100 µM (inactive) and the GI50 (SK-MEL-28) was > 100 µM (inactive). For the same compound, the GI50 (SK-MEL-2) was > 100 µM (inactive), the GI50 (SK-MEL-5) was > 100 µM (inactive) and the GI50 (SK-OV-3) was > 100 µM (inactive). The GI50 (SN12C) was > 100 µM (inactive), the GI50 (SNB-19) was > 100 µM (inactive) and the GI50 (SNB-75) was > 100 µM (inactive). For the same compound, the GI50 (SW-620) was > 100 µM (inactive), the GI50 (T47D) was > 100 µM (inactive) and the GI50 (TK-10) was > 100 µM (inactive). For the same compound, the GI50 (U-251) was > 100 µM (inactive), the GI50 (UACC-257) was > 100 µM (inactive) and the GI50 (UACC-62) was > 100 µM (inactive). The GI50 (UO-31) was > 100 µM (inactive).
In the case of `O=C(O)/C=C/C(=O)Nc1nc[nH]n1`, the GI50 (786-0) is reported as > 100 µM (inactive), the GI50 (A498) is reported as > 100 µM (inactive) and the GI50 (A549) is reported as > 100 µM (inactive). For the same compound, the GI50 (ACHN) was > 100 µM (inactive), the GI50 (BT-549) was > 100 µM (inactive) and the GI50 (CAKI-1) was > 100 µM (inactive). The GI50 (COLO 205) was > 100 µM (inactive), the GI50 (DU-145) was > 100 µM (inactive) and the GI50 (EKVX) was > 100 µM (inactive). The GI50 (HCC 2998) was > 100 µM (inactive), the GI50 (HCT-116) was > 100 µM (inactive) and the GI50 (HCT-15) was > 100 µM. The GI50 (HL-60) was 0.034 µM (active), the GI50 (HOP-62) was > 100 µM (inactive) and the GI50 (HOP-92) was > 100 µM (inactive). The GI50 (HT-29) was > 100 µM (inactive), the GI50 (Hs-578T) was > 100 µM (inactive) and the GI50 (IGROV-1) was > 100 µM (inactive). For the same compound, the GI50 (KM12) was > 100 µM (inactive), the GI50 (LOX IMVI) was > 100 µM (inactive) and the GI50 (M14) was > 100 µM (inactive). For the same compound, the GI50 (MCF7) was > 100 µM (inactive), the GI50 (MDA-MB-231) was > 100 µM (inactive) and the GI50 (MDA-MB-435) was > 100 µM (inactive). The GI50 (MDA-N) was > 100 µM (inactive), the GI50 (MOLT-4) was 62.5 µM (inactive) and the GI50 (NCI-H226) was > 100 µM (inactive). For the same compound, the GI50 (NCI-H23) was > 100 µM (inactive), the GI50 (NCI-H460) was > 100 µM (inactive) and the GI50 (NCI-H522) was > 100 µM (inactive). For the same compound, the GI50 (NCI/ADR-RES) was > 100 µM (inactive), the GI50 (OVCAR-3) was > 100 µM (inactive) and the GI50 (OVCAR-4) was > 100 µM (inactive). For the same compound, the GI50 (OVCAR-5) was > 100 µM (inactive), the GI50 (OVCAR-8) was > 100 µM (inactive) and the GI50 (PC-3) was > 100 µM (inactive). For the same compound, the GI50 (RPMI-8226) was > 100 µM (inactive), the GI50 (RXF 393) was > 100 µM (inactive) and the GI50 (SF-268) was > 100 µM (inactive). The GI50 (SF-295) was > 100 µM (inactive), the GI50 (SF-539) was > 100 µM (inactive) and the GI50 (SK-MEL-28) was > 100 µM (inactive). The GI50 (SK-MEL-2) was > 100 µM (inactive), the GI50 (SK-MEL-5) was > 100 µM (inactive) and the GI50 (SK-OV-3) was > 100 µM (inactive). For the same compound, the GI50 (SN12C) was > 100 µM (inactive), the GI50 (SNB-19) was > 100 µM (inactive) and the GI50 (SNB-75) was > 100 µM (inactive). The GI50 (SW-620) was > 100 µM (inactive), the GI50 (T47D) was > 100 µM (inactive) and the GI50 (TK-10) was > 100 µM (inactive). The GI50 (U-251) was > 100 µM (inactive), the GI50 (UACC-257) was > 100 µM (inactive) and the GI50 (UACC-62) was > 100 µM (inactive). The GI50 (UO-31) was > 100 µM (inactive).
